A word on the Ki: it is the equilibrium dissociation constant of an inhibitor or competing ligand from its target.

Bounds are passed on as bounds.

T1 sequence (P30291 whole entry): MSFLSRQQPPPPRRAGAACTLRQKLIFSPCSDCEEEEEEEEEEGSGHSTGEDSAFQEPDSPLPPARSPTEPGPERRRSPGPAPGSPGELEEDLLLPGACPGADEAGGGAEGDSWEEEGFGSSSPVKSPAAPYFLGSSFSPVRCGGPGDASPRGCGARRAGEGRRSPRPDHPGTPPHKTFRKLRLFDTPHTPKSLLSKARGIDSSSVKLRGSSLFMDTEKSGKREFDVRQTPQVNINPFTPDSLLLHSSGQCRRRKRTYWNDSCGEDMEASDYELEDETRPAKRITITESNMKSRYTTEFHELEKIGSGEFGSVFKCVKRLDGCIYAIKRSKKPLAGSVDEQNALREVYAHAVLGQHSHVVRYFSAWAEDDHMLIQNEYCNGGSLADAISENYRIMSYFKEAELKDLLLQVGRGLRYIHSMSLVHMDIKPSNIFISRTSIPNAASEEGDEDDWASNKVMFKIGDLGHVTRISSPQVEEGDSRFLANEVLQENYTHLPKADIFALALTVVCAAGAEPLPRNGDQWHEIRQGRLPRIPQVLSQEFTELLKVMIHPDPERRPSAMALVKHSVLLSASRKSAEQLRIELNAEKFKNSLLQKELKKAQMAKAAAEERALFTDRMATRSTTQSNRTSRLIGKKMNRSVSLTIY

This assay concerns the target T1, GST-tagged-Wee1 kinase (Homo sapiens, UniProt P30291).
T1 construct: purchased Carnabio (Carna Biosciences) 05-177
Briefly: Wee1 time-resolved fluorescence equilibrium binding assay (displacement of Oregon Green-labeled ATP-competitive kinase probe). To be noted: read-out: Wee-1 inhibition (Ki). How it is done: Wee1 kinase was assayed using a time-resolved fluorescence equilibrium binding assay monitoring displacement of a rapidly reversible Oregon Green-labeled ATP-competitive kinase probe (N-(2-(2-(2-(4-(4-(5-chloro-4-(2-(1-hydroxycyclobutyl)thiazol-5-yl)-1H-pyrrolo[2,3-b]pyridin-2-yl)phenyl)piperazin-1-yl)ethoxy)ethoxy)ethyl)-2′,7′-difluoro-3′,6′-dihydroxy-3-oxo-3H-spiro[isobenzofuran-1,9′-xanthene]-5-carboxamide) by competitive Wee1 inhibitors.
Table 1 depicts enzyme inhibition data (Ki) for exemplary compounds.
`CN1CCN(c2ccc(Nc3ncc4c(=O)n(-c5ccccc5Cl)c5nccn5c4n3)cc2)CC1` [Example 1, 6-(2-chlorophenyl)-2-{[4-(4-methylpiperazin-1-yl)phenyl]amino}imidazo[1,2-a]pyrimido[5,4-e]pyrimidin-5(6H)-one]: the Ki was under 10 nM.
The figure for `O=c1c2cnc(Nc3ccccc3)nc2n2ccnc2n1-c1ccccc1Cl` [Example 2, 2-anilino-6-(2-chlorophenyl)imidazo[1,2-a]pyrimido[5,4-e]pyrimidin-5(6H)-one] is 10 to 100 nM; for `O=c1c2cnc(Nc3ccncc3)nc2n2ccnc2n1-c1ccccc1Cl` [Example 3, 6-(2-chlorophenyl)-2-(pyridin-4-ylamino)imidazo[1,2-a]pyrimido[5,4-e]pyrimidin-5(6H)-one] it is over 100 nM; for `CN1Cc2cc(Nc3ncc4c(=O)n(-c5ccccc5Cl)c5nccn5c4n3)ccc2C2(CC2)C1` [Example 4, 6-(2-chlorophenyl)-2-[(2′-methyl-2′,3′-dihydro-1′H-spiro[cyclopropane-1,4′-isoquinolin]-7′-yl)amino]imidazo[1,2-a]pyrimido[5,4-e]pyrimidin-5(6H)-one] it is under 10 nM.
To `O=c1c2cnc(Nc3ccc4c(c3)CCCC4)nc2n2ccnc2n1-c1ccccc1Cl` [Example 5, 6-(2-chlorophenyl)-2-(5,6,7,8-tetrahydronaphthalen-2-ylamino)imidazo[1,2-a]pyrimido[5,4-e]pyrimidin-5(6H)-one] belongs 10 to 100 nM; to `CN1CCN(c2cccc(Nc3ncc4c(=O)n(-c5ccccc5Cl)c5nccn5c4n3)c2)CC1` [Example 6, 6-(2-chlorophenyl)-2-{[3-(4-methylpiperazin-1-yl)phenyl]amino}imidazo[1,2-a]pyrimido[5,4-e]pyrimidin-5(6H)-one], under 10 nM; to `O=c1c2cnc(Nc3ccc(C4CCCCC4)cc3)nc2n2ccnc2n1-c1ccccc1Cl` [Example 7, 6-(2-chlorophenyl)-2-[(4-cyclohexylphenyl)amino]imidazo[1,2-a]pyrimido[5,4-e]pyrimidin-5(6H)-one], 10 to 100 nM.
The figure for `O=c1c2cnc(Nc3ccc(N4CCCCC4)cc3)nc2n2ccnc2n1-c1ccccc1Cl` [Example 8, 6-(2-chlorophenyl)-2-{[4-(piperidin-1-yl)phenyl]amino}imidazo[1,2-a]pyrimido[5,4-e]pyrimidin-5(6H)-one] is under 10 nM; for `O=c1c2cnc(Nc3ccc(CN4CCCC4)cc3)nc2n2ccnc2n1-c1ccccc1Cl` [Example 9, 6-(2-chlorophenyl)-2-{[4-(pyrrolidin-1-ylmethyl)phenyl]amino}imidazo[1,2-a]pyrimido[5,4-e]pyrimidin-5(6H)-one] it is under 10 nM; for `O=c1c2cnc(Nc3ccc(N4CCOCC4)cc3)nc2n2ccnc2n1-c1ccccc1Cl` [Example 10, 6-(2-chlorophenyl)-2-{[4-(morpholin-4-yl)phenyl]amino}imidazo[1,2-a]pyrimido[5,4-e]pyrimidin-5(6H)-one] it is under 10 nM.
`O=c1c2cnc(Nc3cccc(CN4CCCC4)c3)nc2n2ccnc2n1-c1ccccc1Cl` [Example 11, 6-(2-chlorophenyl)-2-{[3-(pyrrolidin-1-ylmethyl)phenyl]amino}imidazo[1,2-a]pyrimido[5,4-e]pyrimidin-5(6H)-one]: the Ki lay within 10 to 100 nM.
As for `CC(=O)N1CCc2ccc(Nc3ncc4c(=O)n(-c5ccccc5Cl)c5nccn5c4n3)cc21` [Example 12, 2-[(1-acetyl-2,3-dihydro-1H-indol-6-yl)amino]-6-(2-chlorophenyl)imidazo[1,2-a]pyrimido[5,4-e]pyrimidin-5(6H)-one], the Ki is under 10 nM.
As to `CC(=O)N1CCN(c2ccc(Nc3ncc4c(=O)n(-c5ccccc5Cl)c5nccn5c4n3)cc2)CC1` [Example 13, 2-{[4-(4-acetylpiperazin-1-yl)phenyl]amino}-6-(2-chlorophenyl)imidazo[1,2-a]pyrimido[5,4-e]pyrimidin-5(6H)-one], the Ki was under 10 nM.

Source of the values: patent US8710065B2, “Tricyclic inhibitors of kinases” (AbbVie Inc., priority 2011, dated 2014).
